According to US4348393A, “N-Aryl oxazolidinones, oxazolidinethiones, pyrrolidinones, pyrrolidines and thiazolidinones” (Delalande S.A., priority 1978, dated 1982):
Where two headings read alike, the source gives them in different places.

Legend:
[1] = test system: generalized trembling caused by dl-5-hydroxytryptophane; assay: Test A: potentiation in mice of generalized trembling caused by dl-5-hydroxytryptophane; assay type: in vivo; conditions: po; for ED50: Mus musculus, read-out: Test A ED 50
Procedure: Test A: Potentiation in mice of generalized trembling caused by an interperitoneal injection (200 mg/kg) of dl-5-hydroxytryptophane, following the protocol described by C. GOURET and G. RAYNAUD in J. Pharmacol. (Paris), (1974), 5, 231.

[2] = test system: ptosis observed one hour after reserpine; assay: Test B: antagonism of reserpine-induced ptosis in mice; assay type: in vivo; conditions: Mus musculus, 1 h, po, antagonism of ptosis one hour after reserpine 2 mg/kg intravenous, read-out: Test B ED 50
Procedure: Test B: Antagonism with respect to the ptosis observed one hour after an intravenous injection (2 mg/kg) of reserpine given to mice, following the protocol described by C.

[3] = mice, potentiation of trembling by dl-5-hydroxytryptophane 200 mg/kg interperitoneal

Row | Compound | ED50 [1, 3] | ED50 [2] | ED50 [1] | Test A ED 50 [1, 3]
1 | COCC1CN(c2ccc(OCc3cccc(F)c3)cc2)C(=O)O1 (stereo not shown) [compound 67] | 4.4 mg/kg | 5.6 mg/kg |  | 
2 | CCCOCC1CN(c2ccc(OCc3cccc(C#N)c3)cc2)C(=O)O1 (stereo not shown) [compound 160] |  | 4.2 mg/kg |  | 
3 | O=C1OC(COC2CCCCC2)CN1c1ccc(OCC2CCCC2)cc1 (stereo not shown) [compound 51] | 27 mg/kg | 50 mg/kg |  | 
4 | OCC1CN(c2ccc(OCc3ccc(F)cc3)cc2)C(=S)O1 (stereo not shown) [compound 96] | 4.7 mg/kg | 3.6 mg/kg |  | 
5 | CCCCC(=O)OCC1CN(c2ccc(OCC3CCCCC3)cc2)C(=O)O1 (stereo not shown) [compound 104] | 6.2 mg/kg |  |  | 
6 | CCCCC(=O)OCC1CN(c2ccc(OCc3cccc(F)c3)cc2)C(=O)O1 (stereo not shown) [compound 108] | 5.6 mg/kg |  |  | 
7 | CCCCCCCCC(=O)OCC1CN(c2ccc(OCc3ccc(F)cc3)cc2)C(=O)O1 (stereo not shown) [compound 136] |  | 31 mg/kg |  | 
8 | NCC1CN(c2ccc(OCc3ccc(F)cc3)cc2)C(=O)O1 (stereo not shown) [compound 176] | 4 mg/kg | 4 mg/kg |  | 
9 | CC(=O)OCC1CN(c2ccc(OCC#N)cc2)C(=O)O1 (stereo not shown) [compound 1] | 12.5 mg/kg | 6.2 mg/kg |  | 
10 | CC(C)C(=O)OCC1CN(c2ccc(OCc3cccc(Cl)c3)cc2)C(=O)O1 (stereo not shown) [compound 32] | 4.7 mg/kg | 3.6 mg/kg |  | 
11 | CC(C)(C)C(=O)OCC1CN(c2ccc(OCc3cccc([N+](=O)[O-])c3)cc2)C(=O)O1 (stereo not shown) [compound 40] | 6.2 mg/kg | 1.5 mg/kg |  | 
12 | CCCCC(=O)OCC1CN(c2ccc(OCCC#N)cc2)C(=O)O1 (stereo not shown) [compound 6] | 2.4 mg/kg | 6 mg/kg |  | 
13 | CCC(=O)OCC1CN(c2ccc(OCc3ccc(F)cc3)cc2)C(=O)O1 (stereo not shown) [compound 135] |  | 4.2 mg/kg |  | 
14 | COCC1CN(c2ccc(OCc3cc(Cl)cc([N+](=O)[O-])c3)cc2)C(=O)O1 (stereo not shown) [compound 156] | 0.47 mg/kg | 0.3 mg/kg |  | 
15 | CC(=O)OCC1CN(c2ccc(OCc3ccccc3)cc2)C(=O)O1 (stereo not shown) [compound 23] | 12 mg/kg | 12.5 mg/kg |  | 
16 | COCC1CN(c2ccc(OCc3ccc(F)cc3)cc2)C(=O)O1 (stereo not shown) [compound 64] |  | 4.5 mg/kg |  | 
17 | Cc1cccc(N2CC(CO)OC2=O)c1 (stereo not shown) [TOLOXATONE, reference compound] | 60 mg/kg | 50 mg/kg |  | 
18 | COCC1CN(c2ccc(OCC3CCCCC3)cc2)C(=O)O1 (stereo not shown) [compound 55] | 0.6 mg/kg | 1.1 mg/kg |  | 
19 | CC(C)OCC1CN(c2ccc(OCc3cccc(Cl)c3)cc2)C(=O)O1 (stereo not shown) [compound 60] | 30 mg/kg |  |  | 
20 | CCCCOc1ccc(N2CC(CO)OC2=S)cc1 (stereo not shown) [compound 89] | 12.5 mg/kg | 12.5 mg/kg |  | 
21 | CC(C)C(=O)OCC1CN(c2ccc(OCc3cccc([N+](=O)[O-])c3)cc2)C(=O)O1 (stereo not shown) [compound 38] | 1.5 mg/kg | 2 mg/kg |  | 
22 | CN(C)CC1CN(c2ccc(OCc3cccc([N+](=O)[O-])c3)cc2)C(=O)O1 (stereo not shown) [compound 86] |  | 4.8 mg/kg | 4.5 mg/kg | 

Row | Compound | ED50 [1, 3] | ED50 [2] | ED50 [1] | Test A ED 50 [1, 3]
23 | CC(C)OCC1CN(c2ccc(OCCC#N)cc2)C(=O)O1 (stereo not shown) [compound 53] | 5 mg/kg | 5.8 mg/kg |  | 
24 | N#CCCOc1ccc(N2CC(CO)OC2=S)cc1 (stereo not shown) [compound 102] | 6.2 mg/kg |  |  | 
25 | CNCC1CN(c2ccc(OCCC(C)C)cc2)C(=O)O1 (stereo not shown) [compound 79] | 6.2 mg/kg | 2 mg/kg |  | 
26 | CCCOc1ccc(N2CC(CO)OC2=S)cc1 (stereo not shown) [compound 88] | 12.5 mg/kg | 33 mg/kg |  | 
27 | COCC1CN(c2ccc(OCc3ccc(Cl)cc3)cc2)C(=O)O1 (stereo not shown) [compound 68] | 5 mg/kg | 6.2 mg/kg |  | 
28 | O=[N+]([O-])c1cc(Cl)cc(COc2ccc(N3CC(CO)OC3=S)cc2)c1 (stereo not shown) [compound 113] | 3.2 mg/kg | 3.5 mg/kg |  | 
29 | NCC1CN(c2ccc(OCc3cccc([N+](=O)[O-])c3)cc2)C(=O)O1 (stereo not shown) [compound 84] | 3 mg/kg | 1.3 mg/kg |  | 
30 | CCC(=O)OCC1CN(c2ccc(OCCC#N)cc2)C(=O)O1 (stereo not shown) [compound 4] | 2.3 mg/kg | 3.4 mg/kg |  | 
31 | CC(C)(C)C(=O)OCC1CN(c2ccc(OCc3cccc(Cl)c3)cc2)C(=O)O1 (stereo not shown) [compound 34] | 7 mg/kg | 7.5 mg/kg |  | 
32 | CCCCC(=O)OCC1CN(c2ccc(OCc3ccccc3)cc2)C(=O)O1 (stereo not shown) [compound 26] | 12.5 mg/kg | 20 mg/kg |  | 
33 | NCC1CN(c2ccc(OCc3cccc(Cl)c3)cc2)C(=O)O1 (stereo not shown) [compound 82] | 9.6 mg/kg | 12 mg/kg |  | 
34 | CCCCOc1ccc(N2CC(CN(C)C)OC2=O)cc1 (stereo not shown) [compound 75] | 8 mg/kg |  |  | 
35 | CCC(=O)OCC1CN(c2ccc(OCc3cccc([N+](=O)[O-])c3)cc2)C(=O)O1 (stereo not shown) [compound 37] | 1.9 mg/kg | 2 mg/kg |  | 
36 | CCC(=O)OCC1CN(c2ccc(OCc3cccc(F)c3)cc2)C(=O)O1 (stereo not shown) [compound 44] | 6.2 mg/kg |  |  | 
37 | CCCCCCCCC(=O)OCC1CN(c2ccc(OCCC(C)C)cc2)C(=O)O1 (stereo not shown) [compound 126] | 4.4 mg/kg | 1.8 mg/kg |  | 
38 | CCOCC1CN(c2ccc(OCc3cccc(Cl)c3)cc2)C(=O)O1 (stereo not shown) [compound 155] | 9.6 mg/kg | 3 mg/kg |  | 
39 | CC(=O)OCC1CN(c2ccc(OCc3cccc(Cl)c3)cc2)C(=O)O1 (stereo not shown) [compound 30] | 4.2 mg/kg | 4.5 mg/kg |  | 
40 | CC(C)OCC1CN(c2ccc(OCc3ccccc3)cc2)C(=O)O1 (stereo not shown) [compound 58] | 50 mg/kg | 8.8 mg/kg |  | 
41 | CC(C)CCOc1ccc(N2CC(COC(=O)C(C)C)OC2=O)cc1 (stereo not shown) [compound 127] | 5 mg/kg | 4.3 mg/kg |  | 
42 | CCOCC1CN(c2ccc(OCc3cccc([N+](=O)[O-])c3)cc2)C(=O)O1 (stereo not shown) [compound 69] | 0.5 mg/kg | 0.2 mg/kg |  | 
43 | CCCCOc1ccc(N2CC(COC(C)C)OC2=O)cc1 (stereo not shown) [compound 47, para-n-butyloxy phenyl-3 isopropyloxymethyl-5 oxazolidinone-2] | 18 mg/kg | 36 mg/kg |  | 
44 | O=C1OC(COC2CCCCC2)CN1c1ccc(OCc2cccc([N+](=O)[O-])c2)cc1 (stereo not shown) [compound 63] | 9.4 mg/kg | 16.5 mg/kg |  | 

Row | Compound | ED50 [1, 3] | ED50 [2] | ED50 [1] | Test A ED 50 [1, 3]
45 | CCCCCCOc1ccc(N2CC(COC)OC2=O)cc1 (stereo not shown) [compound 149] | 6 mg/kg |  |  | 
46 | CCC(=O)OCC1CN(c2ccc(OCc3cccc(F)c3)cc2)C(=O)O1 (stereo not shown) [compound 106] |  |  |  | 6.2 mg/kg
47 | CNCC1CN(c2ccc(OCC3CCCCC3)cc2)C(=O)O1 (stereo not shown) [compound 173] |  | 4.7 mg/kg |  | 
48 | CN(C)CC1CN(c2ccc(OCC3CCCC3)cc2)C(=O)O1 (stereo not shown) [compound 78] | 6.2 mg/kg |  |  | 
49 | CC(C)C(=O)OCC1CN(c2ccc(OCc3cccc(F)c3)cc2)C(=O)O1 (stereo not shown) [compound 107] |  | 12 mg/kg |  | 
50 | CCC(=O)OCC1CN(c2ccc(OCC3CCCCC3)cc2)C(=O)O1 (stereo not shown) [compound 22] |  | 3 mg/kg |  | 
51 | OCC1CN(c2ccc(OCC3CCCC3)cc2)C(=S)O1 (stereo not shown) [compound 100] | 6.2 mg/kg |  |  | 
52 | CC(C)(C)C(=O)OCC1CN(c2ccc(OCCC#N)cc2)C(=O)O1 (stereo not shown) [compound 7] |  | 7.4 mg/kg |  | 
53 | CCCCCOc1ccc(N2CC(COC)OC2=O)cc1 (stereo not shown) [compound 148] | 2.2 mg/kg |  |  | 
54 | NCC1CN(c2ccc(OCC3CCCCC3)cc2)C(=O)O1 (stereo not shown) [compound 172] |  | 8.6 mg/kg |  | 
55 | CCC(=O)OCC1CN(c2ccc(OCc3cc(Cl)cc([N+](=O)[O-])c3)cc2)C(=O)O1 (stereo not shown) [compound 137] |  | 6 mg/kg |  | 
56 | CC(=O)OCC1CN(c2ccc(OCc3cccc(C#N)c3)cc2)C(=S)O1 (stereo not shown) [compound 120] |  | 3 mg/kg |  | 
57 | CC(C)CC(=O)OCC1CN(c2ccc(OCc3cccc([N+](=O)[O-])c3)cc2)C(=O)O1 (stereo not shown) [compound 134] |  | 3.9 mg/kg |  | 
58 | CCCCCCCCC(=O)OCC1CN(c2ccc(OCc3cc(Cl)cc([N+](=O)[O-])c3)cc2)C(=O)O1 (stereo not shown) [compound 138] |  | 6 mg/kg |  | 
59 | COCC1CN(c2ccc(OCCC(C)C)cc2)C(=O)O1 (stereo not shown) [compound 111] | 0.28 mg/kg |  |  | 
60 | COCC1CN(c2ccc(OCC3=CCCCC3)cc2)C(=O)O1 (stereo not shown) [compound 56] |  | 3 mg/kg |  | 
61 | CC(C)(C)C(=O)OCC1CN(c2ccc(OCC3CCCCC3)cc2)C(=O)O1 (stereo not shown) [compound 105] | 6.2 mg/kg |  |  | 
62 | CCC(=O)OCC1CN(c2ccc(OCCC(C)C)cc2)C(=O)O1 (stereo not shown) [compound 124] |  | 0.6 mg/kg |  | 
63 | CCCCCCCCC(=O)OCC1CN(c2ccc(OCCC#N)cc2)C(=O)O1 (stereo not shown) [compound 9] |  | 25 mg/kg |  | 
64 | OCC1CN(c2ccc(OCC3=CCCCC3)cc2)C(=S)O1 (stereo not shown) [compound 101] | 18 mg/kg |  |  | 
65 | OCC1CN(c2ccc(OCC3CCOCC3)cc2)C(=S)O1 (stereo not shown) [compound 119] |  | 8 mg/kg |  | 
66 | COCC1CN(c2ccc(OCCCC#N)cc2)C(=O)O1 (stereo not shown) [compound 110] | 0.3 mg/kg |  |  | 
